# Laboratory results as given in patent US9725445B2, “Cycloalkyl nitrile pyrazolo pyridones as Janus kinase inhibitors” (Merck Sharp & Dohme Corp., priority 2013, dated 2017).
# How the values were obtained:
# JAK2 = JAK2 (Homo sapiens (Human), UniProt O60674); assay: Jak biochemical HTRF assay, JAK2; settings: HTRF biochemical assay, recombinant GST-tagged catalytic domain; read-out: JAK2 IC50
# JAK1 = JAK1 (Homo sapiens (Human), UniProt P23458); assay: Jak biochemical HTRF assay, JAK1; settings: HTRF biochemical assay, recombinant GST-tagged catalytic domain; read-out: JAK1 IC50
# Chain of JAK1 (P23458 875-1153): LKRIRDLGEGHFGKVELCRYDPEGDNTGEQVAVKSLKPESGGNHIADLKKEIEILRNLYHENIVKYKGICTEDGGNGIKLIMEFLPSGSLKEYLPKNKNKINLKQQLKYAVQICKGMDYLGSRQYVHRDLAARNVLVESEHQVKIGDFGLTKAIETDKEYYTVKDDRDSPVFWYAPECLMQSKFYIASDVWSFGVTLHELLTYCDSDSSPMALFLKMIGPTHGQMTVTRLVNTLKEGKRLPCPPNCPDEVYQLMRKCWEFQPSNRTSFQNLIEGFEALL
# Chain of JAK2 (O60674 849-1124): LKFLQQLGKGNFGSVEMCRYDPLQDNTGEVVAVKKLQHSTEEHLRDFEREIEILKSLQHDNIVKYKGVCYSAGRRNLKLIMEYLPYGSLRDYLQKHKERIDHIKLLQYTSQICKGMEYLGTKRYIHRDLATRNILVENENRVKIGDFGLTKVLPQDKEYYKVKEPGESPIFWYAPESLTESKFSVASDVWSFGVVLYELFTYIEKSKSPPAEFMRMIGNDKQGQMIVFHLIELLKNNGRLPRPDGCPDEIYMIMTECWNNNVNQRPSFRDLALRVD
Structure (SMILES),IC50 (JAK2),IC50 (JAK1)
"C[C@H](NC1CCC(n2nc(Nc3ccc(Cl)cc3)c3c(=O)[nH]ccc32)C(C#N)C1)C1CC1 (stereo in doubt) [Example 4-2, (1S,2S,5R)-2-(3-((4-Chlorophenyl)amino)-4-oxo-4,5-dihydro-1H-pyrazolo[4,3-c]pyridin-1-yl)-5-(((S)-1-cyclopropylethyl)amino)cyclohexanecarbonitrile]",> 1500 nM,84 nM
"CC(C)(C)OC(=O)NCc1ccc(Nc2nn([C@H]3CCCC[C@@H]3C#N)c3cc[nH]c(=O)c23)cc1 [Example 3-32, tert-butyl [4-({1-[(1S,2S)-2-cyanocyclohexyl]-4-oxo-4,5-dihydro-1H-pyrazolo[4,3-c]pyridin-3-yl}amino)benzyl]carbamate]",1.5 nM,0.45 nM
"N#C[C@H]1CCCC[C@@H]1n1nc(Nc2ccc(S(=O)(=O)N3CCCCC3)cc2)c2c(=O)[nH]ccc21 [Example 3-23, (1S,2S)-2-(4-oxo-3-{[4-(piperidin-1-ylsulfonyl)phenyl]amino}-4,5-dihydro-1H-pyrazolo[4,3-c]pyridin-1-yl)cyclohexanecarbonitrile]",0.48 nM,0.31 nM
"N#C[C@H]1CCCC[C@@H]1n1nc(Nc2cccc([C@H](N)C(F)(F)F)c2)c2c(=O)[nH]ccc21 [Example 7-1, (1S,2S)-2-(3-((3-((S)-1-Amino-2,2,2-trifluoroethyl)phenyl)amino)-4-oxo-4,5-dihydro-H-pyrazolo[4,3-c]pyridin-1-yl)cyclohexanecarbonitrileecarbonitrile]",1.5 nM,0.61 nM
"N#C[C@H]1CCCC[C@@H]1n1nc(Nc2cccc([C@@H](N)C(F)(F)F)c2)c2c(=O)[nH]ccc21 [Example 7-2, (1S,2S)-2-[3-({3-[(1R)-1-amino-2,2,2-trifluoroethyl]phenyl}amino)-4-oxo-4,5-dihydro-1H-pyrazolo[4,3-c]pyridin-1-yl]cyclohexanecarbonitrile]",2.2 nM,0.26 nM
"CN(C)[C@@H]1CC[C@H](n2nc(Nc3ccc(Cl)c(F)c3)c3c(=O)[nH]ccc32)[C@@H](C#N)C1 [Example 5-1, (1S,2S,5R)-2-(3-((4-Chloro-3-fluorophenyl)amino)-4-oxo-4,5-dihydro-1H-pyrazolo[4,3-c]pyridin-1-yl)-5-(dimethylamino)cyclohexanecarbonitrile]",19 nM,1.5 nM
"CC(C)[C@H](C)N1Cc2ccc(Nc3nn([C@H]4CCCC[C@@H]4C#N)c4cc[nH]c(=O)c34)cc2C1 [Example 3-148, (1S,2S)-2-[3-({2-[(1S)-1,2-dimethylpropyl]-2,3-dihydro-1H-isoindol-5-yl}amino)-4-oxo-4,5-dihydro-1H-pyrazolo[4,3-c]pyridin-1-yl]cyclohexanecarbonitrile]",0.43 nM,0.31 nM
"N#C[C@H]1CCCC[C@@H]1n1nc(Nc2cc(F)cc(CN)c2)c2c(=O)[nH]ccc21 [Example 6-3, (1S,2S)-2-(3-((3-(aminomethyl)-5-fluorophenyl)amino)-4-oxo-4,5-dihydro-1H-pyrazolo[4,3-c]pyridin-1-yl)cyclohexanecarbonitrile]",2.3 nM,1.4 nM
"N#C[C@H]1CCCC[C@@H]1n1nc(Nc2ccc(C3CCCN3)cc2)c2c(=O)[nH]ccc21 (single isomer, unassigned) [Example 3-72, (1S,2S)-2-[4-oxo-3-({4-[(2R or 2S)-pyrrolidin-2-yl]phenyl}amino)-4,5-dihydro-1H-pyrazolo[4,3-c]pyridin-1-yl]cyclohexanecarbonitrile]",0.5 nM,0.45 nM
"CC(O)(CO)c1cc(Nc2nn([C@H]3CCCC[C@@H]3C#N)c3cc[nH]c(=O)c23)ccc1S(C)(=O)=O (stereo partly drawn) [Example 3-87, (1S,2S)-2-(3-{[3-(1,2-dihydroxy-1-methylethyl)-4-(methylsulfonyl)phenyl]amino}-4-oxo-4,5-dihydro-1H-pyrazolo[4,3-c]pyridin-1-yl)cyclohexanecarbonitrile]",0.95 nM,0.25 nM
"COCCn1cc(-c2ccc(Nc3nn([C@H]4CCCC[C@@H]4C#N)c4cc[nH]c(=O)c34)cc2)cn1 [Example 3-145, (1S,2S)-2-[3-({4-[1-(2-methoxyethyl)-1H-pyrazol-4-yl]phenyl}amino)-4-oxo-4,5-dihydro-1H-pyrazolo[4,3-c]pyridin-1-yl]cyclohexanecarbonitrile]",1.8 nM,0.12 nM
"COCC(C)(C)CN1Cc2cc(Nc3nn([C@H]4CCCC[C@@H]4C#N)c4cc[nH]c(=O)c34)ccc2S1(=O)=O [Example 3-159, (1S,2S)-2-(3-((2-(3-methoxy-2,2-dimethylpropyl)-1,1-dioxido-2,3-dihydrobenzo[d]isothiazol-5-yl)amino)-4-oxo-4,5-dihydro-1H-pyrazolo[4,3-c]pyridin-1-yl)cyclohexanecarbonitrile]",0.44 nM,0.059 nM
"CN(C)C(=O)c1ccc(Nc2nn([C@H]3CCCC[C@@H]3C#N)c3cc[nH]c(=O)c23)cc1C1CC1 [Example 3-69, 4-({1-[(1S,2S)-2-cyanocyclohexyl]-4-oxo-4,5-dihydro-1H-pyrazolo[4,3-c]pyridin-3-yl}amino)-2-cyclopropyl-N,N-dimethylbenzamide]",5.7 nM,2.1 nM
"N#C[C@H]1CCCC[C@@H]1n1nc(Nc2cccc(CN3CCOCC3)c2)c2c(=O)[nH]ccc21 [Example 3-33, (1S,2S)-2-(3-{[3-(morpholin-4-ylmethyl)phenyl]amino}-4-oxo-4,5-dihydro-1H-pyrazolo[4,3-c]pyridin-1-yl)cyclohexanecarbonitrile]",1.7 nM,1.3 nM

# The next lines start with the values.
IC50 (JAK2),IC50 (JAK1),Structure (SMILES)
0.84 nM,0.13 nM,"CC(O)(c1ccc(Nc2nn([C@H]3CCCC[C@@H]3C#N)c3cc[nH]c(=O)c23)cc1)C(F)(F)F (single isomer, unassigned) [Example 15-11, (1S,2S)-2-[4-oxo-3-({4-[(1R or 1S)-2,2,2-trifluoro-1-hydroxy-1-methylethyl]phenyl}amino)-4,5-dihydro-1H-pyrazolo[4,3-c]pyridin-1-yl]cyclohexanecarbonitrile]"
0.62 nM,0.082 nM,"N#C[C@H]1CCCC[C@@H]1n1nc(Nc2ccc3c(c2)CN(C2CCCCC2)C3=O)c2c(=O)[nH]ccc21 [Example 15-34, (1S,2S)-2-{3-[(2-cyclohexyl-1-oxo-2,3-dihydro-1H-isoindol-5-yl)amino]-4-oxo-4,5-dihydro-1H-pyrazolo[4,3-c]pyridin-1-yl}cyclohexanecarbonitrile]"
0.41 nM,0.078 nM,"N#C[C@H]1CCCC[C@@H]1n1nc(Nc2ccc3c(c2)CN(C2CCOCC2)C3=O)c2c(=O)[nH]ccc21 [Example 15-59, (1S,2S)-2-(4-oxo-3-{[1-oxo-2-(tetrahydro-2H-pyran-4-yl)-2,3-dihydro-1H-isoindol-5-yl]amino}-4,5-dihydro-1H-pyrazolo[4,3-c]pyridin-1-yl)cyclohexanecarbonitrile]"
3.6 nM,0.26 nM,"N#C[C@H]1CCCC[C@@H]1n1nc(Nc2ccc(-c3nccs3)cc2)c2c(=O)[nH]ccc21 [Example 15-2, (1S,2S)-2-(4-oxo-3-{[4-(1,3-thiazol-2-yl)phenyl]amino}-4,5-dihydro-1H-pyrazolo[4,3-c]pyridin-1-yl)cyclohexanecarbonitrile]"
0.17 nM,0.17 nM,"Cc1cc(Nc2nn([C@H]3CCCC[C@@H]3C#N)c3cc[nH]c(=O)c23)ccc1C(C)(C)n1ccnn1 [Example 15-33, (1S,2S)-2-[3-({3-methyl-4-[1-methyl-1-(1H-1,2,3-triazol-1-yl)ethyl]phenyl}amino)-4-oxo-4,5-dihydro-1H-pyrazolo[4,3-c]pyridin-1-yl]cyclohexanecarbonitrile]"
3.2 nM,0.32 nM,"N#C[C@H]1CCCC[C@@H]1n1nc(Nc2ccc(-c3ccno3)cc2)c2c(=O)[nH]ccc21 [Example 15-5, (1S,2S)-2-{3-[(4-isoxazol-5-ylphenyl)amino]-4-oxo-4,5-dihydro-1H-pyrazolo[4,3-c]pyridin-1-yl}cyclohexanecarbonitrile]"
0.14 nM,0.062 nM,"CC1(N2Cc3cc(Nc4nn([C@H]5CCCC[C@@H]5C#N)c5cc[nH]c(=O)c45)ccc3C2=O)CCOCC1 [Example 15-63, (1S,2S)-2-(3-{[2-(4-methyltetrahydro-2H-pyran-4-yl)-1-oxo-2,3-dihydro-1H-isoindol-5-yl]amino}-4-oxo-4,5-dihydro-1H-pyrazolo[4,3-c]pyridin-1-yl)cyclohexanecarbonitrile]"
0.92 nM,0.23 nM,"CC(=O)N1Cc2ccc(Nc3nn([C@H]4CCCC[C@@H]4C#N)c4cc[nH]c(=O)c34)cc2C1 [Example 15-26, (1S,2S)-2-{3-[(2-acetyl-2,3-dihydro-1H-isoindol-5-yl)amino]-4-oxo-4,5-dihydro-1H-pyrazolo[4,3-c]pyridin-1-yl}cyclohexanecarbonitrile]"
0.38 nM,0.12 nM,"N#C[C@H]1CCCC[C@@H]1n1nc(Nc2ccc3c(c2)CC2(CCCCC2)S3(=O)=O)c2c(=O)[nH]ccc21 [Example 21-2, (1S,2S)-2-(3-((1,1-Dioxido-3H-spiro[benzo[b]thiophene-2,1′-cyclohexan]-5-yl)amino)-4-oxo-4,5-dihydro-1H-pyrazolo[4,3-c]pyridin-1-yl)cyclohexanecarbonitrile]"
2.9 nM,0.17 nM,"N#C[C@H]1CCCC[C@@H]1n1nc(Nc2ccc(-c3noc(=O)[nH]3)cc2)c2c(=O)[nH]ccc21 [Example 15-17, (1S,2S)-2-(4-oxo-3-{[4-(5-oxo-4,5-dihydro-1,2,4-oxadiazol-3-yl)phenyl]amino}-4,5-dihydro-1H-pyrazolo[4,3-c]pyridin-1-yl)cyclohexanecarbonitrile]"
0.98 nM,0.48 nM,"N#C[C@H]1CCCC[C@@H]1n1nc(Nc2ccc(C3CCNCC3)cc2)c2c(=O)[nH]ccc21 [Example 15-25, (1S,2S)-2-{4-oxo-3-[(4-piperidin-4-ylphenyl)amino]-4,5-dihydro-1H-pyrazolo[4,3-c]pyridin-1-yl}cyclohexanecarbonitrile]"
